This test deals with SARS-CoV-2. The test can be described thus: Antiviral activity against SARS-CoV-2 Delta (B.1.617.2) infected in African green monkey Vero E6 cells assessed as reduction in viral replication treated for 1 hr followed by replacement with fresh medium containing compounds measured after 23 hrs in presence of CP-100356 by qRT-PCR analysis. To be noted: Severe acute respiratory syndrome coronavirus 2, Delta (B.1.617.2), Vero C1008. In kind it is functional, organism-based. For orientation: Real-time PCR tracks product formation cycle by cycle.

The record followed here is ChEMBL document CHEMBL5375961, “Design, Synthesis, and Biological Evaluation of Trisubstituted Piperazine Derivatives as Noncovalent Severe Acute Respiratory Syndrome Coronavirus 2 Main Protease Inhibitors with Improved Antiviral Activity and Favorable Druggability” (J Med Chem, 2023).

What is called EC50 is the concentration giving half of the maximal effect.

Structures are written as SMILES.

With `CC(C)(C)[C@H](NC(=O)C(F)(F)F)C(=O)N1CC2(C[C@H]1C(=O)N[C@H](C#N)C[C@@H]1CCNC1=O)SCCS2`, the concentration giving a half-maximal response (EC50) came to 34 nM.
